In patent US20180207164A1, “COMBINATION THERAPIES FOR TREATING CANCERS” (GILEAD SCIENCES, INC., priority 2015, published 2018):

Columns and labels:
[1] = system: primary chronic lymphocytic leukemia (CLL) cells; assay: Apoptosis induction in primary CLL cells with αIgM/αIgG/αCD40 stimulation, without HS-5 co-culture (Annexin V/Live-Dead flow cytometry); format: cell-based, human; settings: for Maximal % Apoptosis: HS-5 (no co-culture), 66-72 hr post-compound addition, duplicate wells; for average maximal proportion of apoptotic cells: primary αIgM/αIgG/αCD40 stimulated CLL cells; for apoptosis observed in all CLL samples tested: at 30 nM
Protocol: (§1) The HS-5 human stromal cell line was obtained from ATCC (American Tissue Type Collection). Cells were maintained in lymphocyte growth medium (LGM): RPMI-1640 supplemented with 10% FBS, 1% penicillin-streptomycin, 10 mM HEPES, 1 mM sodium pyruvate, 55 μM β-mercaptoethanol, and 2 mM GlutaMax. With informed consent, whole blood was obtained from CLL subjects.
(§2) Peripheral blood mononuclear cells (PBMCs) were prepared from human whole blood obtained from CLL patients by Ficoll-separation in CPT tubes according to manufacturer's directions (Becton Dickinson). Isolated PBMCs were cryopreserved in freezing medium (50% IMDM, 40% FBS, and 10% DMSO) and held in the gas phase of liquid nitrogen until use. One day prior to plating of primary CLL cells, wells of a U-bottom 96-well plate were coated with 3.0×10^4 HS-5 cells and allowed to adhere overnight in a humidified 37° C. incubator supplemented with 5% CO2. The % CD5+/CD19^+ cells isolated were quantified via FACS staining.
(§3) Frozen primary CLL PBMCs were thawed, washed once in LGM, and rested for 3-5 hours in LGM at 37° C. prior to plating. Cells were then centrifuged at room temperature for 10 minutes and resuspended at 1.0-2.5×10^5 cells/mL in LGM for plating. Assay wells were set up in U-bottom 96-well tissue culture plates in the absence or presence of HS-5 co-culture. Compounds were diluted as described below. Assay plates were incubated for 1 hour prior to stimulation with αIgM/αIgG (7.8 μg/well) and αCD40 (4 μg/well). Positive and negative controls were set up. Cells were incubated for 66-72 hours in a 37° C. CO2 incubator and assayed for apoptosis.
(§4) Compounds were diluted from 10 mM DMSO stock solutions. Compound combinations were prepared by transferring 2 μl each of the appropriate working compound solutions or vehicle to wells of a 96-well polypropylene plate. A daughter plate was made by 100× dilution into media. The final assay plate was made by 10× dilution into the final assay plate described above. The final DMSO concentration was 0.1%.
(§5) Cells were transferred to a deep well (2 mL) assay block and rinsed with 1 mL cation free PBS (PBS^−/−). Cells were resuspended in Invitrogen's aqua Live/Dead reagent according to manufacturer's instructions and incubated 30 minutes on ice. Aqua Live/Dead was quenched with an equal volume of PBS^+/+ and 4% FBS (FACS buffer). Cells were centrifuged and labeled with αCD5-PE, αCD19-BV421 and AnnexinV-APC in a total volume of 80 μL and incubated 30 minutes on ice. After labeling, cells were rinsed twice in FACS buffer and then fixed with BD Fixation buffer for 30 minutes on ice. Cells were rinsed twice with FACS buffer and analyzed.
(§6) The percentage of CD5^+/CD19^+ cells was quantified in the PBMCs to provide an assessment of the malignant cell population in each sample. To evaluate apoptosis, flow cytometric sampling of 50 μL cell suspensions (5,000-25,000 total events) were collected on a BD FACS Canto II instrument using a high throughput screen (HTS) autosampler. The CD5^+CD19^+ population was gated, and data were collected for the Annexin V^−/Live-Dead^−, AnnexinV^+/Live-Dead^−, AnnexinV^+/Live-Dead^+, and Annexin V^−/Live-Dead^+ CLL populations.
(§7) Annexin V^+/Live-Dead^− or Annexin V^−/Live-Dead^+ cells were gated and percentages of positive cells in each population were recorded for each well and data were extracted to a flow cytometry standard (fcs) file. Average percentages of Annexin V^+/Live-Dead^− and Annexin V^−/Live-Dead^+ were determined.
EC50 values were calculated based on log concentration of drug and percent Annexin V^+/Live-Dead^− and Annexin V^−/Live-Dead^+ cells using a 4 parameter nonlinear regression algorithm in Prism 6.01 of the GraphPad software (San Diego, Calif. USA, www.graphpad.com). Each run generated a single EC50 based on duplicate well values at each compound dilution. EC50 values and Hill slopes generated from each curve fit were reported. […]

[2] = system: primary CLL cells + HS-5 co-culture; assay: Apoptosis induction in primary CLL cells with αIgM/αIgG/αCD40 stimulation in HS-5 stromal cell co-culture; format: cell-based, human; settings: for Maximal % Apoptosis: +HS-5, 1 μM compound, 66-72 hr post-compound addition, duplicate wells
Protocol: as §1, §2
One day prior to plating of primary CLL cells, wells of a U-bottom 96-well plate were coated with 3.0×10^4 HS-5 cells and allowed to adhere overnight in a humidified 37° C. incubator supplemented with 5% CO2.
as §3, §4, §5, §6, §7
EC50 values were calculated based on log concentration of drug and percent Annexin V^+/Live-Dead^− and Annexin V^−/Live-Dead^+ cells using a 4 parameter nonlinear regression algorithm in Prism 6.01 of the GraphPad software (San Diego, Calif. USA, www.graphpad.com). […]

CLL = settings: human, in vivo; cited from earlier work

Row | SMILES | average maximal apoptosis ([1]; 1 μM compound, αIgM/αIgG/αCD40 stimulated, 5 donors) [%] | Maximal % Apoptosis ([1]; Donor 3, 1 μM compound) [%] | Maximal % Apoptosis ([1]; Donor 4, 1 μM compound) [%] | Maximal % Apoptosis ([1]; Donor 5, 1 μM compound) [%] | Maximal % Apoptosis ([1]; Donor 6, 1 μM compound) [%] | Maximal % Apoptosis ([1]; Donor 10, 1 μM compound) [%] | EC50 ([1]; Homo sapiens, CLL cell, primary CLL cells stimulated with αIgM/αIgG/αCD40, N=4, 66-72 h, read-out: geometric mean EC50 (±standard deviation) for induction of apoptosis) [nM] | Maximal % Apoptosis ([2]; Donor 3) [%] | Maximal % Apoptosis ([2]; Donor 4) [%] | apoptosis levels versus background in the presence of HS-5 co-culture ([2]; HS-5 co-culture, 5 donors tested, mean EC50 not reported) | dose-responsive effect in inducing apoptosis ([1]; primary CLL cells, single agent) | average maximal proportion of apoptotic cells [1] [%] | apoptosis observed in all CLL samples tested [1] [%] | clinical efficacy in CLL (CLL)
1 | CC#CC(=O)N1CC[C@@H](n2c(=O)n(-c3ccc(Oc4ccccc4)cc3)c3c(N)ncnc32)C1 [Compound A1, 6-amino-9-[(3R)-1-(2-butynoyl)-3-pyrrolidinyl]-7-(4-phenoxyphenyl)-7,9-dihydro-8H-purin-8-one] | 21.1 | 30.0 | 67.3 | 10.4 | 14.1 | 20.0 | 27.2 ± 11.3 | 10.1 | 45.5 | generally not increased above background in 3/5 donors tested |  |  |  | 
2 | CCC(Nc1ncnc2[nH]cnc12)c1nc2cccc(F)c2c(=O)n1-c1ccccc1 (stereo not shown) [Compound C1, 2-(1-((9H-Purin-6-yl)amino)propyl)-5-fluoro-3-phenylquinazolin-4(3H)-one] |  | 50.8 | 60.1 | 12.1 | 15.0 | 17.6 |  | 15.2 | 30.6 |  | dose-responsive effect | 23 |  | 
3 | c1cn2cc(-c3ccc4cn[nH]c4c3)nc(Nc3ccc(N4CCOCC4)cc3)c2n1 [Compound D1, 6-(1H-indazol-6-yl)-N-(4-morpholinophenyl)imidazo[1,2-a]pyrazin-8-amine] |  |  |  |  |  |  |  |  |  |  |  |  | > 60 | clinical efficacy in CLL
4 | CC1(C)CCC(CN2CCN(c3ccc(C(=O)NS(=O)(=O)c4ccc(NCC5CCOCC5)c([N+](=O)[O-])c4)c(Oc4cnc5[nH]ccc5c4)c3)CC2)=C(c2ccc(Cl)cc2)C1 [Compound B1, 4-[4-[[2-(4-chlorophenyl)-4,4-dimethyl-1-cyclohexen-1-yl]methyl]-1-piperazinyl]-N-[[3-nitro-4-[[(tetrahydro-2H-pyran-4-yl)methyl]amino]phenyl]sulfonyl]-2-(1H-pyrrolo[2,3-b]pyridin-5-yloxy)-benzamide] |  | 66.1 | 87.3 | 38.3 | 31.6 | 35.8 |  | 30.8 | 80.8 |  |  | 91.4 | > 60 | clinical efficacy in CLL
